These are literature values, as cited in US9072718B2, “Burdock fruit extract containing arctigenin and method for producing same” (Kracie Pharma, Ltd., priority 2010, dated 2015).

For data set [1] the following is noted: stated without a test.
Data set [2] relates to pancreas cancer cell line PANC-1. Particulars: PANC-1, undernutrition condition; Non-patent document 1.

For the compound `COc1cc(C[C@H]2C(=O)OC[C@@H]2Cc2ccc(OC)c(OC)c2)ccc1O` [arctigenin], the solubility in water result in data set [1] was “hardly soluble in water”. For the same compound, the “effect on viability of tumor cells in the undernutrition condition” value in data set [2] is reported as “effective”.
Take `COc1ccc(C[C@H]2COC(=O)[C@@H]2Cc2ccc(O[C@@H]3O[C@H](CO)[C@@H](O)[C@H](O)[C@H]3O)c(OC)c2)cc1OC` [arctiin]: in data set [1], the solubility in water result was “hardly soluble in water”.
